Measured values published in patent publication US20250092065A1, “2-(INDAZOL-5-YL)-6-(PIPERIDIN-4-YL)-1,7-NAPHTHYRIDINE DERIVATIVES AND RELATED COMPOUNDS AS MODULATORS FOR SPLICING NUCLEIC ACIDS AND FOR THE TREATMENT OF PROLIFERATIVE DISEASES” (REMIX THERAPEUTICS INC., priority 2022, published 2025).
Read-outs that look alike come from different tables or passages of the source.

Tests used:
[1] = test system: MYB mRNA; assay: RT-qPCR splicing assay, MYB mRNA canonical (CJ) and alternative (AJ) junction; type: cell-based, human; settings: Homo sapiens; for AC50: MYB alternative junction mRNA, read-out: MYB AJ (increase in AJ mRNA, AC50)
Method in brief: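 A673 or K562 cells treated 24 h at 37 °C with 11-point 3-fold dilutions (top final 10 uM, DMSO ≤0.25%). Lysates analysed by one-step RT-qPCR for canonical (CJ) and alternative-exon (AJ) junctions, normalized to GAPDH, GUSB or PPIA. ΔΔCt vs DMSO, RQ = 2^(−ΔΔCt), expressed as percentage response.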

[2] = test system: MYB; assay: HiBiT protein abundance assay, MYB (K562 HiBiT knock-in); type: cell-based, human; settings: HiBiT knock-in K562 cells, 24 hours, top dose 10 μM
Method in brief: (§1)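 Steps: seed HiBiT knock-in K562 cells; add compound in 10-point 3-fold series from 10 μM final; incubate 24 h, 37 °C; add lytic HiBiT reagent, shake 5 min, wait 10 min; read luminescence. Normalize to parental K562 and DMSO controls, fit 4PL, take IC50.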

[3] = test system: HTT; assay: HiBiT protein abundance assay, HTT (K562 HiBiT knock-in); type: cell-based, human; settings: HiBiT knock-in K562 cells, 24 hours, top dose 10 μM
Method in brief: as §1

[4] = test system: Target C; assay: HiBiT protein abundance assay, Target C (K562 HiBiT knock-in); type: cell-based, human; settings: HiBiT knock-in K562 cells, 24 hours, top dose 10 μM
Method in brief: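 K562 HiBiT knock-in cells (10000/well) were treated 24 h at 37° C with a 10-point 3-fold dilution series (top 10 μM final, ≤0.25% DMSO). HiBiT luminescence was read after lytic LgBiT detection. Percent response used unmodified K562 and DMSO-treated knock-in controls, and IC50 came from a four-parameter fit at 50% of untreated.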

[5] = test system: K562 cells; assay: Cell Titer Glo 2.0 cell viability (toxicity) assay, K562; settings: 500 cells/well, 72 hours
Protocol: Compounds described herein were screened for toxicity in K562 (human chronic myelogenous leukemia) and SH-SY5Y (human neuroblastoma) cells using a Cell Titer Glo 2.0 assay.
Cells were plated at 500 cells/well (K562 cells) in 45 μL of IMDM supplemented with 10% FBS in a 384-well opaque plate. Wells containing only medium were used as a blank control. Test compounds (e.g., compounds of Formula (I) or (II)) were first serially diluted in DMSO then diluted 1:100 with EIDM+10% FBS. The final concentration of DMSO was 0.1% in each well. The cells were incubated for 72 hours at 37° C. and 5% CO2 before assaying with Cell Titer Glo 2.0 reagent.

[6] = MYB canonical junction mRNA, RT-qPCR, read-out: MYB CJ (decrease in CJ mRNA levels, IC50)
[7] = canonical junction qPCR panel, Table 4, read-out: MYB IC50 (decrease in CJ mRNA levels)

SMILES | IC50 [1, 6] | IC50 [1, 7] | IC50 [2] | IC50 [3] | IC50 [4] | AC50 ([1]; RT-qPCR) | Effect of Exemplary Compounds on Cell Viability, K562 [5]
Cc1cn2cc(-c3ccc4cc(N5C[C@@H](C)N[C@@H](C)C5)cc(F)c4n3)cc(F)c2n1 [Compound 544, 6-[(3R,5S)-3,5-dimethylpiperazin-1-yl]-8-fluoro-2-{8-fluoro-2-methylimidazo[1,2-a]pyridin-6-yl}quinoline] | 100 to 1000 nM | 100 to 1000 nM | 100 to 1000 nM | 100 to 1000 nM | 100 to 1000 nM | 100 to 1000 nM | B (B represents 100-1000 nM)
CNC(=O)c1nc(-c2cc3cn(C)nc3c(C)c2O)nc2ccc(N3C[C@H](C)N[C@@H](C)C3)cc12 [Compound 652, 6-[(3S,5S)-3,5-dimethylpiperazin-1-yl]-2-(6-hydroxy-2,7-dimethylindazol-5-yl)-N-methylquinazoline-4-carboxamide] | < 100 nM | < 100 nM | < 100 nM | < 100 nM | 100 to 1000 nM | < 100 nM | A (A represents <100 nM)
Cc1c(O)c(-c2ncc3cc(N4C[C@H](C)N[C@@H](C)C4)ccc3n2)cc2cn(C)nc12 [Compound 660, 5-{6-[(3S,5S)-3,5-dimethylpiperazin-1-yl]quinazolin-2-yl}-2,7-dimethylindazol-6-ol] | < 100 nM | < 100 nM | < 100 nM | 100 to 1000 nM | 100 to 1000 nM | < 100 nM | A (A represents <100 nM)
CNC(=O)c1nc(-c2cc3cn(C)nc3c(C)c2O)nc2ccc(N3CCC(N4CCC4)CC3)cc12 [Compound 706] | < 100 nM | < 100 nM | < 100 nM | 100 to 1000 nM | 100 to 1000 nM | < 100 nM | A (A represents <100 nM)
C[C@@H]1CN(c2ccc3nc(-c4cc5cn(C)nc5c(F)c4O)nc(C#N)c3c2)C[C@H](C)N1 [Compound 707, 6-[(3R,5S)-3,5-dimethylpiperazin-1-yl]-2-(7-fluoro-6-hydroxy-2-methylindazol-5-yl) quinazoline-4-carbonitrile] | < 100 nM | < 100 nM | < 100 nM | 100 to 1000 nM | 100 to 1000 nM | < 100 nM | A (A represents <100 nM)
C[C@@H]1CN(c2ccc3nc(-c4cc5cn(C)nc5c(F)c4O)nc(C(N)=O)c3c2)C[C@H](C)N1 [Compound 712, 6-[(3R,5S)-3,5-dimethylpiperazin-1-yl]-2-(7-fluoro-6-hydroxy-2-methylindazol-5-yl) quinazoline-4-carboxamide] | < 100 nM | < 100 nM | < 100 nM | 100 to 1000 nM | 1000 to 10000 nM | < 100 nM | A (A represents <100 nM)
CC(=O)c1nc(-c2cc3cn(C)nc3c(F)c2O)nc2ccc(N3C[C@@H](C)N[C@@H](C)C3)cc12 [Compound 717, 1-{6-[(3R,5S)-3,5-dimethylpiperazin-1-yl]-2-(7-fluoro-6-hydroxy-2-methylindazol-5-yl)quinazolin-4-yl}ethanone] | < 100 nM | < 100 nM | < 100 nM | 100 to 1000 nM | 100 to 1000 nM | < 100 nM | A (A represents <100 nM)
CNC(=O)c1nc(-c2cc3cn(C)nc3c(F)c2O)nc2ccc(N3CCC(N4CCC4)CC3)cc12 [Compound 722, 6-[4-(azetidin-1-yl)piperidin-1-yl]-2-(7-fluoro-6-hydroxy-2-methylindazol-5-yl)-N-methylquinazoline-4-carboxamide] | < 100 nM | < 100 nM | < 100 nM | < 100 nM | 100 to 1000 nM | < 100 nM | A (A represents <100 nM)

The next lines start with results.

IC50 [1, 6] | IC50 [1, 7] | IC50 [2] | IC50 [3] | IC50 [4] | SMILES | AC50 ([1]; RT-qPCR) | Effect of Exemplary Compounds on Cell Viability, K562 [5]
< 100 nM | < 100 nM | < 100 nM | < 100 nM | < 100 nM | Cc1cc(N2C[C@@H](C)N[C@@H](C)C2)cc2c(Cl)cc(-c3cc4cn(C)nc4c(F)c3O)nc12 [Compound 723, 5-{4-chloro-6-[(3R,5S)-3,5-dimethylpiperazin-1-yl]-8-methylquinolin-2-yl}-7-fluoro-2-methylindazol-6-ol] | < 100 nM | A (A represents <100 nM)
< 100 nM | < 100 nM | < 100 nM | 100 to 1000 nM | 100 to 1000 nM | CNC(=O)c1nc(-c2cc3cn(C)nc3c(F)c2O)nc2ccc(N3CCNC4(CC4)C3)cc12 [Compound 728, 6-{4,7-diazaspiro[2.5]octan-7-yl}-2-(7-fluoro-6-hydroxy-2-methylindazol-5-yl)-N-methylquinazoline-4-carboxamide] | < 100 nM | A (A represents <100 nM)
< 100 nM | < 100 nM | < 100 nM | < 100 nM | < 100 nM | CNC(=O)c1nc(-c2cc3cn(C)nc3c(F)c2O)nc2ccc(N3CC[C@@H](NC)C3)cc12 [Compound 729, 2-(7-fluoro-6-hydroxy-2-methylindazol-5-yl)-N-methyl-6-[(3R)-3-(methylamino)pyrrolidin-1-yl]quinazoline-4-carboxamide] | < 100 nM | A (A represents <100 nM)
1000 to 10000 nM | 1000 to 10000 nM | 1000 to 10000 nM | 1000 to 10000 nM | 1000 to 10000 nM | C[C@@H]1CN(c2ccc3nc(-c4cc5cn(C)nc5c(F)c4O)nc(-c4nccs4)c3c2)C[C@H](C)N1 [Compound 732, 5-{6-[(3R,5S)-3,5-dimethylpiperazin-1-yl]-4-(1,3-thiazol-2-yl)quinazolin-2-yl}-7-fluoro-2-methylindazol-6-ol] | > 10000 nM | B (B represents 100-1000 nM)
100 to 1000 nM | 100 to 1000 nM | 100 to 1000 nM | 1000 to 10000 nM | 1000 to 10000 nM | C[C@@H]1CN(c2ccc3nc(-c4cc5cn(C)nc5c(F)c4O)nc(C(=O)NCCO)c3c2)C[C@H](C)N1 [Compound 737, 6-[(3R,5S)-3,5-dimethylpiperazin-1-yl]-2-(7-fluoro-6-hydroxy-2-methylindazol-5-yl)-N-(2-hydroxyethyl)quinazoline-4-carboxamide] | 100 to 1000 nM | A (A represents <100 nM)
100 to 1000 nM | 100 to 1000 nM | 100 to 1000 nM | 1000 to 10000 nM | > 10000 nM | CNC(=O)c1nc(-c2cc3cn(C)nc3cc2O)nc2ccc(N3CCC(N(C)C)CC3)cc12 [Compound 742, 6-[4-(dimethylamino)piperidin-1-yl]-2-(6-hydroxy-2-methylindazol-5-yl)-N-methylquinazoline-4-carboxamide] | 100 to 1000 nM | A (A represents <100 nM)
1000 to 10000 nM | 1000 to 10000 nM | 1000 to 10000 nM | 1000 to 10000 nM | 1000 to 10000 nM | C[C@@H]1CN(c2ccc3nc(-c4cc5cn(C)nc5c(F)c4O)ncc3c2)C[C@H](C)N1 [Compound 743, 5-{6-[(3R,5S)-3,5-dimethylpiperazin-1-yl]quinazolin-2-yl}-7-fluoro-2-methylindazol-6-ol] | > 10000 nM | C (C represents 1000-9999 nM)
< 100 nM | < 100 nM | < 100 nM | < 100 nM | < 100 nM | C[C@H]1CN(c2ccc3nc(-c4cc5cn(C)nc5c(F)c4O)ncc3c2)C[C@H](C)N1 [Compound 744, 5-{6-[(3S,5S)-3,5-dimethylpiperazin-1-yl]quinazolin-2-yl}-7-fluoro-2-methylindazol-6-ol] | < 100 nM | A (A represents <100 nM)
< 100 nM | < 100 nM | < 100 nM | 100 to 1000 nM | 100 to 1000 nM | C[C@@H]1CN(c2ccc3nc(-c4cc5cn(C)nc5c(F)c4O)ncc3c2)C[C@@H](C)N1 [Compound 745, 5-{6-[(3R,5R)-3,5-dimethylpiperazin-1-yl]quinazolin-2-yl}-7-fluoro-2-methylindazol-6-ol] | < 100 nM | A (A represents <100 nM)
100 to 1000 nM | 100 to 1000 nM | 100 to 1000 nM | > 10000 nM | > 10000 nM | CN[C@@H]1CCN(c2cc3c(Cl)cc(-c4cc5cn(C)nc5c(C)c4O)nc3cc2C)C1 [Compound 748, 5-{4-chloro-7-methyl-6-[(3R)-3-(methylamino)pyrrolidin-1-yl]quinolin-2-yl}-2,7-dimethylindazol-6-ol] | 1000 to 10000 nM | B (B represents 100-1000 nM)
